In patent US8465985B2, “Fluorescent probe” (The University of Tokyo, priority 2007, dated 2013):

Assay: Spectral change of Compound 5 in association with pH change (absorption and fluorescence spectra)
Format: physicochemical
Experimental: For all the samples, measurements were performed in a 1:1 mixed solvent of 100 mM sodium phosphate buffered solution and acetonitrile (containing 0.1% or less of DMSO as an auxiliary solvent).
In the case of Compound 5, for example, the tricarbocyanine fluorophore is a pH-sensitive FRET receptor, the dicarbocyanine fluorophore is an FRET donor, and the compound has a property that when the nitrogen atom binding to the methine chain of the tricarbocyanine fluorophore is protonated, the peak in the excitation spectrum shifts from around 660 nm to the longer wavelength side in connection with decrease of electron donating ability. […] Namely, by dissolving Compound 5 in a test sample, performing excitation with a light of 640 nm, and measuring ratio of fluorescence intensities at 660 nm and 750 nm upon excitation, it becomes possible to detect pH by the ratio method. Compound 5 is especially useful as a pH fluorescent probe for measuring pH in live cells or live tissues, in particular, in deep part tissues, under a physiological condition.
In a 1:1 mixed solution of 100 mmol/L phosphate buffer (pH 1.2, 2.1, 3.3, 3.9, 5.0, 6.0, 6.8) and acetonitrile (containing 0.1% or less of DMSO as an auxiliary solvent), absorption spectra and fluorescence spectra (excitation wavelength: 640 nm) of Compound 5 were measured. It can be understood that with elevation of pH, the absorbance around 650 nm increased, and the absorption spectrum changed. Moreover, it can also be understood that in the fluorescence spectrum, with elevation of pH, the fluorescence intensity decreased around 660 nm, and increased around 750 nm. Therefore, pH change can be accurately measured by using the ratio method based on one-wavelength excitation/ two-wavelength fluorescence measurement. […] The fluorescence intensities at 660 nm and 750 nm linearly change from pH 4 to 6, and accordingly, pH of this range can be measured by using Compound 5.

[1] = excitation 640 nm, 1:1 phosphate buffer (pH 1.2-6.8) and acetonitrile

- change of absorbance around 650 nm with elevation of pH (1:1 100 mmol/L phosphate buffer (pH 1.2-6.8) and acetonitrile): increased
- change of fluorescence intensity around 660 nm with elevation of pH [1]: decreased
- change of fluorescence intensity around 750 nm with elevation of pH [1]: increased
- fluorescence wavelength of the tricarbocyanine fluorophore (FRET receptor) (excitation light of 640 nm, nitrogen atom not protonated): around 750 nm
- fluorescence wavelength peak of the dicarbocyanine fluorophore (FRET donor) (excitation light of 640 nm, nitrogen atom protonated): around 660 nm
Structure (SMILES): CN1/C(=C/C=C2\CCCC(/C=C/C3=[N+](C)c4ccccc4C3(C)C)=C2NCCCCCC(=O)N[C@H]2CC[C@H](NC(=O)CC[N+]3=C(/C=C/C=C/C=C4/N(CCC(=O)O)c5ccccc5C4(C)C)C(C)(C)c4ccccc43)CC2)C(C)(C)c2ccccc21 [Compound 5]
